Measurements: publication PMC11433870, “Neurotoxicity, Neuroprotection, In Vitro MAOA/MAOB Inhibitory Activity Assessment, Molecular Docking, and Permeability Assay Studies of Newly Synthesized Hydrazones Containing a Pyrrole Ring” (Molecules, 2024)
Several values for one entry are separate records, joined by “and”; a condition that tells them apart may be missing. Identical values can stand only once.

Columns and labels:
[1] = test system: isolated rat brain synaptosomes; assay: 6-OHDA-induced neurotoxicity model: synaptosomal viability; type: cell-based; settings: toxic agent applied alone at 150 µM, compared to control (untreated synaptosomes)
Experimental: (§1) Synaptosomes and mitochondria were obtained by multiple, subcellular fractionation using a Percoll gradient. The necessary brain homogenate was prepared and centrifuged at 1000× g for 5 min at +4 °C. After centrifugation, the supernatants were collected and centrifuged again at 1000× g for 5 min at +4 °C. The supernatants from the two centrifugations were mixed and distributed into four tubes. The tubes were centrifuged at 10,000× g for 20 min at +4 °C three times. The last two centrifugations were for purification of synaptosomes and mitochondria.
The isolation of the required fractions was based on the formation of a colloidal solution of silicon (Percoll), as per the procedure, including: 1. Preparation of a 90% stock solution of Percoll, followed by preparation of two Percoll solutions of different percentages: 16% and 10%. An amount of 4 mL of each of the prepared 16% and 10% Percoll solutions was placed in six test tubes. A 90% Percoll (7.5% Percoll) was added to the precipitate obtained from the previous step from the last centrifugation. The obtained mixtures in all 12 tubes were centrifuged for 20 min at 15,000× g +4 °C. […]
After 1 h incubation with the substances and toxic agent, synaptosomes were centrifuged on a microcentrifuge for 1 min at 15,000× g. […] After dissolution, the amount of formazan is measured spectrophotometrically at λ = 580 nm.

[2] = test system: isolated rat brain synaptosomes; assay: 6-OHDA-induced neurotoxicity model: GSH level; type: cell-based; settings: for preservation of GSH level: 50 µM in combination with 6-OHDA (150 µM), compared to the toxic agent
Experimental: as §1
(§2) The isolation of the required fractions was based on the formation of a colloidal solution of silicon (Percoll), as per the procedure, including: 1. Preparation of a 90% stock solution of Percoll, followed by preparation of two Percoll solutions of different percentages: 16% and 10%. An amount of 4 mL of each of the prepared 16% and 10% Percoll solutions was placed in six test tubes. A 90% Percoll (7.5% Percoll) was added to the precipitate obtained from the previous step from the last centrifugation. The obtained mixtures in all 12 tubes were centrifuged for 20 min at 15,000× g +4 °C. After centrifugation, three layers are formed in the tubes. The bottom layer contains mitochondria, the top layer contains lipids, and the middle layer—at the 16% to 10% Percoll limit—contains synaptosomes. The respective layer from each tube is removed through a glass pasteurizer and collected into one. Buffer B + glucose is added to it. The mixture was centrifuged at 10,000× g for 20 min at +4 °C. Thus, the isolation buffer is exchanged with the incubation buffer. After centrifugation, the pellet where the synaptosomes are mixed and made up with buffer B + glucose.
(§3) Synaptosomes and mitochondria were incubated with the test substances at a concentration of 50 µM for 1 h.
Synaptosomes were incubated with 6-OHDA (150 μM) for 1 h.
(§4) After precipitation of the proteins with trichloroacetic acid, the thiol groups in the supernatant were determined by DTNB, which produced a yellow-colored compound that absorbs light at λ = 412 nm. After incubation, synaptosomes were centrifuged at 4000× g for 3 min. The supernatant was removed and the pellet taken for GSH determination. It was treated with 5% trichloroacetic acid, then left for 10 min on ice. It was centrifuged at 8000× g for 10 min (2 °C). The supernatant is taken for GSH determination and frozen at −20 °C. Immediately before measurement, the samples are neutralized with 5N NaOH [58].

[3] = test system: isolated rat brain mitochondria; assay: t-BuOOH-induced oxidative stress model: GSH level; settings: 50 µM in combination with t-BuOOH (75 µM), compared to the toxic agent
[4] = test system: isolated rat brain mitochondria; assay: Neurotoxicity: GSH level in brain mitochondria, substances applied alone; type: cell-based; settings: 50 µM applied alone, compared to control
Experimental: as §1, §2
[…]. After centrifugation of the homogenate at 6000× g, a 0.04% solution of DTNB was added to the supernatant to give a yellow color, the determination being spectrophotometric at 412 nm.

[5] = test system: isolated rat brain microsomes; assay: Neurotoxicity: MDA production in brain microsomes, substances applied alone; type: cell-based; settings: 50 µM applied alone, compared to control
Experimental: (§5) The brain was homogenized in 9 volume parts of 0.1 M Tris buffer containing: 0.1 mM dithiothreitol, 0.1 mM phenylmethylsulfonyl fluoride, 0.2 mM EDTA, 1.15% KCl, and 20% (v/v) glycerol (pH 7.4). The resulting homogenate was centrifuged twice at 17,000× g for 30 min. The supernatants from the two centrifugations were pooled and centrifuged twice at 100,000× g for 1 h. The pellet was frozen in 0.1 M Tris buffer.
(§6) After completion of incubation of the microsomes with the substances and toxic agent, the reaction was stopped by the addition of 0.5 mL of 20% trichloroacetic acid, followed by 0.5 mL of 0.67% thiobarbituric acid. The ongoing reactions are associated with the formation of a colored complex between the malondialdehyde formed and thiobarbituric acid. The determination of MDA was spectrophotometric at 535 nm. A molar extinction coefficient of […] was used for the calculation.

[6] = test system: isolated rat brain synaptosomes; assay: Neurotoxicity: synaptosomal viability (MTT), substances applied alone; type: cell-based; settings: 50 µM applied alone, 1 h, compared to control (untreated synaptosomes)
Experimental: as §1, §2, §3
After 1 h incubation with the substances and toxic agent, synaptosomes were centrifuged on a microcentrifuge for 1 min at 15,000× g. The pellet was mixed gently with buffer B + glucose, and the supernatant where 6-OHDA was discarded to prevent oxidation of MTT. Centrifuge again at 15,000× g for 1 min. After the second wash, buffer B + glucose was added to the pellet. To the ‘washed’ synaptosomes, 60 µL of MTT solution is added. The plates were incubated with the MTT solution at 37 °C for 10 min. After incubation, the samples were centrifuged at 15,000× g for 2 min. The excess liquid was removed, and a DMSO solution was used to dissolve the formed formazan crystals. After dissolution, the amount of formazan is measured spectrophotometrically at λ = 580 nm.

[7] = test system: isolated rat brain mitochondria; assay: t-BuOOH-induced oxidative stress model: MDA production; settings: 50 µM in combination with t-BuOOH (75 µM), compared to the toxic agent
[8] = biological target: T1, human recombinant MAOA enzyme (hMAOA) (Homo sapiens, UniProt P21397); assay: Human recombinant MAOA enzyme activity (fluorometric, Amplex Red); type: biochemical; settings: read-out: IC50 (EC50), (µM ± SD) hMAOA
T1 sequence (P21397 1-527): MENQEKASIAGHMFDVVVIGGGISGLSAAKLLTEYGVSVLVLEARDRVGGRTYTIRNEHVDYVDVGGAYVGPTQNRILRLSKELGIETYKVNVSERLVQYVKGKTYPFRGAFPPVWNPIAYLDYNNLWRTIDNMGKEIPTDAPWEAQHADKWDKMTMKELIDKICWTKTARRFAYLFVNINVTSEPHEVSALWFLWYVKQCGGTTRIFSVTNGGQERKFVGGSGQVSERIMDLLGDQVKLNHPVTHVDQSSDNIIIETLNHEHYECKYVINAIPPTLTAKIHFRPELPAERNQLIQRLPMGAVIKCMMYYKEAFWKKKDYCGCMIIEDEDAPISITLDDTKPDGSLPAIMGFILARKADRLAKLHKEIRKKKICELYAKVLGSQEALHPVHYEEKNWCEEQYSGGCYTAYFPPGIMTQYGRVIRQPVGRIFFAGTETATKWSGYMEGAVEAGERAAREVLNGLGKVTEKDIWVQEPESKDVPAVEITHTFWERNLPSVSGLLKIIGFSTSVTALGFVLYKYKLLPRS
Experimental: (§7) The activity of recombinant human MAOA/B was determined fluorometrically. Tyramine hydrochloride was used as substrate. The activity is determined by detection of H2O2 production. This production is in turn reported by binding to horseradish peroxidase using N-acetyl-3,7-dihydroxyphenoxazine (AmplexRed, Thermo Fisher Scientific, Waltham, MA, USA) [63].
(§8) Working solutions of the test substances, reagents, and human recombinant MAOA/B enzyme (hMAOA/B) were prepared in reaction buffer according to the manufacturer’s instructions. A pure working solution of MAOA/B in reaction buffer, a working solution of MAOA/B containing hydrogen peroxide, and a pure reaction buffer were used as controls. Substances were applied at a final concentration of 1 µM. The substances together with hMAOB were placed in a 96-well plate (8 samples for each substance), and then the plate was placed in an incubator for 30 min (in the dark, at 37 °C). Fluorimetric readings were performed in a Synergy 2 Microplate Reader at two wavelengths (570 nm and 690 nm).

[9] = biological target: T2, human recombinant MAOB enzyme (hMAOB) (Homo sapiens, UniProt P27338); assay: Human recombinant MAOB enzyme activity (fluorometric, Amplex Red); type: biochemical; settings: for inhibition at 1 µM: compared to control (pure hMAOB); for IC50: read-out: IC50 (EC50), (µM ± SD) hMAOB;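 for all read-outs here: tyramine as substrate, H2O2 formation detected by horseradish peroxidase coupled Amplex Red fluorescence read at 570 and 690 nm, compounds incubated with enzyme 30 min at 37 °C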
T2 sequence (P27338 1-520): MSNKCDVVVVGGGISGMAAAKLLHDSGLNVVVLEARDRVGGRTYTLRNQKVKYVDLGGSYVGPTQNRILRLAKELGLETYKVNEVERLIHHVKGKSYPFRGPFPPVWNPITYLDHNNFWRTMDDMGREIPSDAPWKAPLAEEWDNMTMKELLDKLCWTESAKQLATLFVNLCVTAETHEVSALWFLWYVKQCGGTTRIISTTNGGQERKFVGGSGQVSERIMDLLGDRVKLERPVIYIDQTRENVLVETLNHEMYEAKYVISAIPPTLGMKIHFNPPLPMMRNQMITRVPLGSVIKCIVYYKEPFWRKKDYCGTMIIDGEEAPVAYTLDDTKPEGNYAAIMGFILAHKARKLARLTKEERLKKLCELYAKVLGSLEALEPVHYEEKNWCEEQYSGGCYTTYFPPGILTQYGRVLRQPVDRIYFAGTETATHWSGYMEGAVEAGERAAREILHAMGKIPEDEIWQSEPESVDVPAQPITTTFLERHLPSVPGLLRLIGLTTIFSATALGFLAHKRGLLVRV
Experimental: as §7, §8

[10] = test system: isolated rat brain mitochondria; assay: Neurotoxicity: MDA production in brain mitochondria, substances applied alone; type: cell-based; settings: 50 µM applied alone, compared to control
Experimental: as §1, §2, §3
To the mitochondria was added 0.3 mL of 0.2% thiobarbituric acid and 0.25 mL of sulfuric acid (0.05 M), and the mixture was boiled for 30 min. After boiling, the tubes were placed on ice, and 0.4 mL of n-butanol was added to each, then centrifuged at 3500× g for 10 min. The amount of MDA was determined spectrophotometrically at 532 nm.

[11] = test system: isolated rat brain synaptosomes; assay: Neurotoxicity: reduced glutathione (GSH) level in synaptosomes, substances applied alone; type: cell-based; settings: 50 µM applied alone, 1 h, compared to control
Experimental: as §1, §2, §3, §4

[12] = test system: isolated rat brain microsomes; assay: Fe2+/AA-induced non-enzyme lipid peroxidation model: MDA production; type: cell-based; settings: 50 µM in combination with Fe2+/AA, compared to the toxic agent
Experimental: as §5
Non-enzyme-induced lipid peroxidation was induced with 20 μM ferrous sulfate solution and 0.5 mM ascorbic acid solution [62].
as §6

[13] = pH 7.4, 50 µM, 4 h, 25 °C; Pe calculated in 10^−6 cm/s, presented as −logPe

SMILES | decrease in synaptosomal viability by toxic agent alone [1] [%] | decrease in GSH level by toxic agent alone ([2]; toxic agent applied alone at 150 µM, compared to control) [%] | preservation of GSH level [3] [%] | decrease of GSH level [4] [%] | increase of MDA production [5] [%] | decrease of synaptosomal viability [6] [%] | reduction of MDA production [7] [%] | IC50 [8] [µM] | SI: hMAOB selectivity index = IC50(hMAOA)/IC50(hMAOB) [9] | inhibition at 1 µM [9] [%] | IC50 [9] [µM] | increase of MDA production [10] [%] | decrease of glutathione (GSH) level [11] [%] | decrease of MDA production [12] [%] | PAMPA BBB −logPe [13] | preservation of GSH level [2] [%]
NCCc1cc(O)c(O)cc1O [6-OHDA, 6-hydroxydopamine, reference compound] | 50 | 50 | – | – | – | – | – | – | – | – | – | – | – | – | – | –
CCOC(=O)c1cc(-c2ccc(Br)cc2)n(CC(=O)NN=Cc2ccc(OC)cc2OC)c1C [7e] | – | – | 50 | 25 | 52 | 30 | 10 | > 100 | >123 | 35 | 0.81 ± 0.09 | 50 | 25 | 31 | 4.814 ± 0.15 | 40
CCOC(=O)c1cc(-c2ccc(Br)cc2)n(CCC(=O)NN=Cc2ccc(OC)cc2OC)c1C [8e] | – | – | 60 | 25 | 63 | 35 | 11 | > 100 | >122 | 20 | 0.817 ± 0.09 | 69 | 20 | 25 | 5.714 and 5.714 ± 0.041 | 50
CCOC(=O)c1cc(-c2ccc(Br)cc2)n(CCC(=O)NN=Cc2cc(OC)c(O)c(OC)c2)c1C [8d] | – | – | 80 | 15 | 30 | 20 | 38 | > 100 | >204 | 45 | 0.49 ± 0.09 | 40 | 15 | 54 | 4.464 ± 0.026 and 4.464 | 70
CCOC(=O)c1cc(-c2ccc(Br)cc2)n(CCC(=O)NN=Cc2ccc(Cl)cc2)c1C [8b] | – | – | 50 | 20 | 51 | 30 | 9 | > 100 | >123 | 25 | 0.815 ± 0.1 | 52 | 20 | 31 | 4.444 ± 0.004 | 50
CCOC(=O)c1cc(-c2ccc(Br)cc2)n(CC(=O)NN=Cc2ccc([N+](=O)[O-])cc2)c1C [7c] | – | – | 40 | 25 | 51 | 35 | 18 | > 100 | >123 | 25 | 0.815 ± 0.2 | 53 | 20 | 35 | 4.601 ± 0.040 | 50
